How the values were obtained:
HDAC 1 = HDAC 1 (Homo sapiens, UniProt Q13547); experiment: HDAC 1 inhibition assay with about 3 hours enzyme/compound preincubation (fluorophore/quencher peptide substrate); format: biochemical; details: 3-hour preincubation of enzyme with compound; read-out: HDAC 1 inhibitory activity (IC50 [μM]) (3-hour preincubation)
Protocol: HDAC inhibitory activity of the compound of Example 1 was measured by two types of assays in which HDAC 1 was used as a target molecule. The first assay was carried out without preincubation after addition of the enzyme. The test compound was suspended in and titrated in dmso. It was then spotted into a 384-well test plate. The enzyme, HDAC 1, was diluted in assay buffer containing 25 mM Tris-HCl (pH 8.0), 137 mM NaCl, 2.7 mM KCl, and 0.01% Tween-20 and added to the pre-spotted compound. The peptide substrate containing a fluorophore/quencher pair was diluted in the same assay buffer and added to the compound/enzyme mix initiating the reaction. The reaction incubated at room temperature for about 45 minutes. A concentrated developer solution was diluted in the assay buffer, and added to the reaction. The reaction was incubated at room temperature for about 15 minutes and relative fluorescence was read on an instrument reader.
The second assay is similar to the first assay described above, except that preincubation is carried out for about 3 hours after the enzyme is introduced. The test compound was suspended in, and titrated in DMSO. It was then spotted into a 384-well test plate. The enzyme, HDAC 1, was diluted in the same assay buffer as used in the previous assay and added to the pre-spotted compound. The enzyme/compound mix was incubated at room temperature for about 3 hours. The peptide substrate containing a fluorophore/quencher pair was diluted in the assay buffer and added to the compound/enzyme mix initiating the reaction. The reaction incubated at room temperature for 45 minutes. A concentrated developer solution was diluted in the assay buffer, and added to the reaction. The reaction was incubated at room temperature for about 15 minutes and relative fluorescence was read on an instrument reader.

CDK2 = CDK2 (Homo sapiens, UniProt P24941); experiment: CDK2 inhibition; format: biochemical

Chain of HDAC 1 (Q13547 whole entry, species assumed): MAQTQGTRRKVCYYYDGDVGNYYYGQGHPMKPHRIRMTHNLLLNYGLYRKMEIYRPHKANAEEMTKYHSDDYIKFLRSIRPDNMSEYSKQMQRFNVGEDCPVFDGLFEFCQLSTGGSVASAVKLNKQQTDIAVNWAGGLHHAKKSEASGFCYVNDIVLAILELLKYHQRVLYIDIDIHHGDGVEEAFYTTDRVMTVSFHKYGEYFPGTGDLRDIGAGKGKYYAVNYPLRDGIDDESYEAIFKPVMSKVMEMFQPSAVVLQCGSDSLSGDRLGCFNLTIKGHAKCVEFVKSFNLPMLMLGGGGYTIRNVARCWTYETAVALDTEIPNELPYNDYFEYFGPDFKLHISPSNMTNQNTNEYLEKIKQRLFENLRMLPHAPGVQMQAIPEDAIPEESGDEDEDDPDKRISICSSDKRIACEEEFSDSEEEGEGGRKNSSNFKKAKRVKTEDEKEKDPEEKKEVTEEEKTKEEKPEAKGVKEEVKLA

Cc1nc2cc(OCCN(C)C)ccn2c1-c1ccnc(Nc2ccc(C(=O)Nc3ccccc3N)cc2)n1 [Example 30, N-(2-Amino-phenyl)-4-{4-[7-(2-dimethylamino-ethoxy)-2-methyl-imidazo[1,2-a]pyridin-3-yl]-pyrimidin-2-ylamino}-benzamide]
IC50 (HDAC 1): 0.118 µM | IC50 (CDK2): 1.07 µM

Cc1nc2ccccn2c1-c1ccnc(Nc2ccc(C(=O)NO)cn2)n1 [Example 64, N-hydroxy-6-(4-(2-methylimidazo[1,2-a]pyridin-3-yl)pyrimidin-2-ylamino)nicotinamide]
IC50 (HDAC 1): 0.094 µM | IC50 (CDK2): 0.52 µM

COc1ccn2c(-c3ccnc(Nc4ccc(C(=O)NO)cc4)n3)c(C(F)(F)F)nc2c1 [Example 49, N-Hydroxy-4-[4-(7-methoxy-2-trifluoromethyl-imidazo[1,2-a]pyridin-3-yl)-pyrimidin-2-ylamino]-benzamide]
IC50 (HDAC 1): 0.199 µM | IC50 (CDK2): 0.06 µM

Cc1nc2ccc(C(=O)NCCN3CCOCC3)cn2c1-c1ccnc(Nc2ccc(C(=O)Nc3ccccc3N)cc2)n1 [Example 40, 3-(2-(4-(2-aminophenylcarbamoyl)phenylamino)pyrimidin-4-yl)-2-methyl-N-(2-morpholinoethyl)imidazo[1,2-a]pyridine-6-carboxamide]
IC50 (HDAC 1): 0.347 µM | IC50 (CDK2): 7.1 µM

Cc1nc2ccccn2c1-c1ccnc(Nc2ccc(C(=O)NO)cc2F)n1 [Example 33, 3-Fluoro-N-hydroxy-4-[4-(2-methyl-imidazo[1,2-a]pyridin-3-yl)-pyrimidin-2-ylamino]-benzamide]
IC50 (HDAC 1): 0.126 µM | IC50 (CDK2): 0.22 µM

Cc1nc2cc(C(F)(F)F)ccn2c1-c1ccnc(Nc2ccc(C(=O)Nc3ccccc3N)cc2)n1 [Example 10, N-(2-Amino-phenyl)-4-[4-(2-methyl-7-trifluoromethyl-imidazo[1,2-a]pyridin-3-yl)-pyrimidin-2-ylamino]-benzamide]
IC50 (HDAC 1): > 10 µM | IC50 (CDK2): 0.084 µM

Cc1nc2cc(NCCN(C)C)ccn2c1-c1ccnc(Nc2ccc(C(=O)Nc3ccccc3N)cc2)n1 [Example 32, N-(2-Amino-phenyl)-4-{4-[7-(2-dimethylamino-ethylamino)-2-methyl-imidazo[1,2-a]pyridin-3-yl]-pyrimidin-2-ylamino}-benzamide]
IC50 (HDAC 1): 0.141 µM | IC50 (CDK2): 2.58 µM

COC(=O)c1ccn2c(-c3ccnc(Nc4ccc(C(=O)Nc5ccccc5N)cc4)n3)c(C)nc2c1 [Example 26, Methyl 3-(2-(4-(2-aminophenylcarbamoyl)phenylamino)pyrimidin-4-yl)-2-methylimidazo[1,2-a]pyridine-7-carboxylate]
IC50 (HDAC 1): > 10 µM | IC50 (CDK2): 0.53 µM

Cc1nc2c(F)cccn2c1-c1ccnc(Nc2ccc(C(=O)Nc3ccccc3N)cc2)n1 [Example 45, N-(2-Amino-phenyl)-4-[4-(8-fluoro-2-methyl-imidazo[1,2-a]pyridin-3-yl)-pyrimidin-2-ylamino]-benzamide]
IC50 (HDAC 1): 0.178 µM | IC50 (CDK2): 0.35 µM

Cc1nc2cc(C#N)ccn2c1-c1ccnc(Nc2ccc(C(=O)Nc3ccccc3N)cc2)n1 [Example 24, N-(2-Amino-phenyl)-4-[4-(7-cyano-2-methyl-imidazo[1,2-a]pyridin-3-yl)-pyrimidin-2-ylamino]-benzamide]
IC50 (HDAC 1): 0.18 µM | IC50 (CDK2): 0.5 µM

O=C(NO)c1cccc(Nc2nccc(-c3cnc4ccccn34)n2)c1 [Example 7, N-Hydroxy-3-(4-imidazo[1,2-a]pyridin-3-yl-pyrimidin-2-ylamino)-benzamide]
IC50 (HDAC 1): 0.017 µM | IC50 (CDK2): 0.069 µM

Cc1nc2cnccn2c1-c1ccnc(Nc2ccc(C(=O)NO)cc2)n1 [Example 19, N-Hydroxy-4-[4-(2-methyl-imidazo[1,2-a]pyrazin-3-yl)-pyrimidin-2-ylamino]-benzamide]
IC50 (HDAC 1): 0.0937 µM | IC50 (CDK2): 0.07 µM

Cc1nc2ccccn2c1-c1ccnc(Nc2nc(C(=O)Nc3ccccc3N)cs2)n1 [Example 62, N-(2-aminophenyl)-2-(4-(2-methylimidazo[1,2-a]pyridin-3-yl)pyrimidin-2-ylamino)thiazole-4-carboxamide]
IC50 (HDAC 1): > 10 µM | IC50 (CDK2): 1.36 µM

Cc1nc2ccccn2c1-c1ccnc(Nc2ccc(C(=O)NO)c(F)c2)n1 [Example 35, 2-Fluoro-N-hydroxy-4-[4-(2-methyl-imidazo[1,2-a]pyridin-3-yl)-pyrimidin-2-ylamino]-benzamide]
IC50 (HDAC 1): 0.128 µM | IC50 (CDK2): 0.06 µM

COCCOc1ccn2c(-c3ccnc(Nc4ccc(C(=O)Nc5ccccc5N)cc4)n3)c(C)nc2c1 [Example 31, N-(2-Amino-phenyl)-4-{4-[7-(2-methoxy-ethoxy)-2-methyl-imidazo[1,2-a]pyridin-3-yl]-pyrimidin-2-ylamino}-benzamide]
IC50 (HDAC 1): 0.243 µM | IC50 (CDK2): 0.4 µM

Nc1ccccc1NC(=O)c1ccc(Nc2nccc(-c3c(C(F)(F)F)nc4ccccn34)n2)cc1 [Example 16, N-(2-Amino-phenyl)-4-[4-(2-trifluoromethyl-imidazo[1,2-a]pyridin-3-yl)-pyrimidin-2-ylamino]-benzamide]
IC50 (HDAC 1): 0.295 µM | IC50 (CDK2): 0.16 µM

Cc1nc2cc(C(F)(F)F)ccn2c1-c1ccnc(Nc2ccc(C(=O)NO)cc2)n1 [Example 9, N-Hydroxy-4-[4-(2-methyl-7-trifluoromethyl-imidazo[1,2-a]pyridin-3-yl)-pyrimidin-2-ylamino]-benzamide]
IC50 (HDAC 1): 0.0392 µM | IC50 (CDK2): 0.037 µM

Cc1nc2ccccn2c1-c1ccnc(Nc2ncc(C(=O)NO)cn2)c1 [Example 74, N-hydroxy-2-(4-(2-methylimidazo[1,2-a]pyridin-3-yl)pyridin-2-ylamino)pyrimidine-5-carboxamide]
IC50 (HDAC 1): 0.104 µM | IC50 (CDK2): 6.47 µM

Cc1nc2ccccn2c1-c1ccnc(Nc2ccc(C(=O)Nc3ccccc3N)cn2)n1 [Example 66, N-(2-aminophenyl)-6-(4-(2-methylimidazo[1,2-a]pyridin-3-yl)pyrimidin-2-ylamino)nicotinamide]
IC50 (HDAC 1): 0.289 µM | IC50 (CDK2): 3.48 µM

O=C(NO)c1ccc(Nc2nccc(-c3cnc4ccccn34)n2)cc1 [Example 5, N-Hydroxy-4-(4-imidazo[1,2-a]pyridin-3-yl-pyrimidin-2-ylamino)-benzamide]
IC50 (HDAC 1): 0.02 µM | IC50 (CDK2): 0.0393 µM

Cc1nc2ccc(C(F)(F)F)cn2c1-c1ccnc(Nc2ccc(C(=O)Nc3ccccc3N)cc2)n1 [Example 12, N-(2-Amino-phenyl)-4-[4-(2-methyl-6-trifluoromethyl-imidazo[1,2-a]pyridin-3-yl)-pyrimidin-2-ylamino]-benzamide]
IC50 (HDAC 1): > 10 µM | IC50 (CDK2): 0.32 µM

Cc1nc2ccccn2c1-c1ccnc(Nc2cccc(C(=O)NO)c2)n1 [Example 3, N-Hydroxy-3-[4-(2-methyl-imidazo[1,2-a]pyridin-3-yl)-pyrimidin-2-ylamino]-benzamide]
IC50 (HDAC 1): 0.011 µM | IC50 (CDK2): 0.18 µM

Nc1ccccc1NC(=O)c1ccc(Nc2ncc(F)c(-c3cnc4ccccn34)n2)cc1 [Example 50, N-(2-Amino-phenyl)-4-(5-fluoro-4-imidazo[1,2-a]pyridin-3-yl-pyrimidin-2-ylamino)-benzamide]
IC50 (HDAC 1): > 20 µM | IC50 (CDK2): 0.06 µM

Cc1nc2cc(OCCN3CCOCC3)ccn2c1-c1ccnc(Nc2ccc(C(=O)Nc3ccccc3N)cc2)n1 [Example 29, N-(2-aminophenyl)-4-(4-(2-methyl-7-(2-morpholinoethoxy)imidazo[1,2-a]pyridin-3-yl)pyrimidin-2-ylamino)benzamide]
IC50 (HDAC 1): 0.315 µM | IC50 (CDK2): 2.13 µM

Cc1nc2ccccn2c1-c1ccnc(Nc2ccc(C(=O)Nc3ccccc3N)cc2F)n1 [Example 34, N-(2-Amino-phenyl)-3-fluoro-4-[4-(2-methyl-imidazo[1,2-a]pyridin-3-yl)-pyrimidin-2-ylamino]-benzamide]
IC50 (HDAC 1): 1.56 µM | IC50 (CDK2): 0.86 µM

Cc1nc2ccccn2c1-c1ccnc(Nc2cc(C(=O)Nc3ccccc3N)cs2)n1 [Example 59, N-(2-aminophenyl)-5-(4-(2-methylimidazo[1,2-a]pyridin-3-yl)pyrimidin-2-ylamino)thiophene-3-carboxamide]
IC50 (HDAC 1): 0.993 µM | IC50 (CDK2): 0.04 µM

O=C(NO)c1ccc(Nc2ncc(F)c(-c3cnc4ccccn34)n2)cc1 [Example 51, 4-(5-Fluoro-4-imidazo[1,2-a]pyridin-3-yl-pyrimidin-2-ylamino)-N-hydroxy-benzamide]
IC50 (HDAC 1): 0.211 µM | IC50 (CDK2): 0.014 µM

N-hydroxy-2-(4-(2-methylimidazo[1,2-a]pyridin-3-yl)pyrimidin-2-ylamino)oxazole-5-carboxamide [Example 72]
IC50 (HDAC 1): 0.4 µM | IC50 (CDK2): > 40 µM

Cc1nc2ccccn2c1-c1ccnc(Nc2ccc(C(=O)Nc3ccccc3N)cc2)n1 [Example 2, N-(2-Amino-phenyl)-4-(4-(2-methylimidazo[1,2-a]pyridin-3-yl)-pyrimidin-2-ylamino)-benzamide]
IC50 (HDAC 1): 0.146 µM | IC50 (CDK2): 0.134 µM

Cc1nc2ccccn2c1-c1ccnc(Nc2cnc(C(=O)Nc3ccccc3N)cn2)n1 [Example 68, N-(2-aminophenyl)-5-(4-(2-methylimidazo[1,2-a]pyridin-3-yl)pyrimidin-2-ylamino)pyrazine-2-carboxamide]
IC50 (HDAC 1): 0.0206 µM | IC50 (CDK2): > 40 µM

Reference: patent US8124764B2, “Fused heterocyclyc inhibitor compounds” (Gilead Sciences, Inc., priority 2008, dated 2012)
